Test results taken from patent US8003660B2, “Modulators of muscarinic receptors” (Vertex Pharmaceuticals Incorporated, priority 2006, dated 2011).

Legend:
Assay type in all cases: cell-based
M1 muscarinic receptor = target: T1, M1 muscarinic receptor (Homo sapiens, UniProt P11229); assay: Functional mobilization of intracellular calcium (FLIPR) in CHO cells expressing M1; details: for M1 Activity: CHO cells expressing M1, FLIPR calcium assay; for Emax: CHO, 100% efficacy = maximum response obtained with the Carbachol control
T1 construct: expressed in transfected cells; host or cells: CHO (M1-CHO)
T1 sequence (P11229 1-460): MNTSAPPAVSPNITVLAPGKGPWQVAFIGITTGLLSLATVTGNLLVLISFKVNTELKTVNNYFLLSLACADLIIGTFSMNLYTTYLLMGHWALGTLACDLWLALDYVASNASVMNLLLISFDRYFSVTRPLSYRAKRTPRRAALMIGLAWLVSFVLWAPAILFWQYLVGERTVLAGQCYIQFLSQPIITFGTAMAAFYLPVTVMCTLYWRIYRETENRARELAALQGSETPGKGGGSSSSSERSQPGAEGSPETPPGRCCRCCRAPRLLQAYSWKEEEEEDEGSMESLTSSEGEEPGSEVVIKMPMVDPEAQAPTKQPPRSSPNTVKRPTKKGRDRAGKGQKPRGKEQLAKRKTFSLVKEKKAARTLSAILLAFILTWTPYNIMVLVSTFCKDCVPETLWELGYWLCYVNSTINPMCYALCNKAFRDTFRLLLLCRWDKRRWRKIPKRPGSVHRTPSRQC
Method in brief: (§1)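 Calcium flux is read on FLIPR over 60 sec at 488/540 nm in muscarinic-receptor CHO lines. Antagonist mode adds carbachol at EC80 after 15 min compound preincubation or with simultaneous co-application. Agonist mode adds compound alone. Cells carry Fluo-3 or Calcium 3 dye in probenecid-containing pH 7.4 buffer, 0.5% DMSO final.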

M2 muscarinic receptor = target: T2, M2 muscarinic receptor (Homo sapiens, UniProt P08172); assay: Functional mobilization of intracellular calcium (FLIPR) in CHO cells expressing M2; details: for M2 Activity: CHO cells expressing M2, FLIPR calcium assay; for Emax: CHO, 100% efficacy = maximum response obtained with the Carbachol control
T2 construct: expressed in transfected cells; host or cells: CHO (M2-CHO)
T2 sequence (P08172 1-466): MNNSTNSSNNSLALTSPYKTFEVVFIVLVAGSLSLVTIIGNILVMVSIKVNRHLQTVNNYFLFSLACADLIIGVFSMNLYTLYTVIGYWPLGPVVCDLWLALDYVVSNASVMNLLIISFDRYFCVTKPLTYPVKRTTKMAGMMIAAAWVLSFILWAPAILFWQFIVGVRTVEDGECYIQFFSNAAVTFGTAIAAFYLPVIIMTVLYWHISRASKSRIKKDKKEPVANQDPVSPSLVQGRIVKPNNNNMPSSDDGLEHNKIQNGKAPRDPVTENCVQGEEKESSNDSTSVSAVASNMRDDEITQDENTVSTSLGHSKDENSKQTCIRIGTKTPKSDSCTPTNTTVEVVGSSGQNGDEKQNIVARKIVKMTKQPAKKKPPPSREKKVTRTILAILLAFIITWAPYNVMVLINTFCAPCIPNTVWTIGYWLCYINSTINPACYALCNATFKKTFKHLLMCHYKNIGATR
Method in brief: as §1

M4 muscarinic receptor = target: T3, M4 muscarinic receptor (Homo sapiens, UniProt P08173); assay: Functional mobilization of intracellular calcium (FLIPR) in CHO cells expressing M4; details: for M4 Activity: CHO cells expressing M4, FLIPR calcium assay; for Emax: CHO, 100% efficacy = maximum response obtained with the Carbachol control
T3 construct: expressed in transfected cells; host or cells: CHO (M4-CHO)
T3 sequence (P08173 1-479): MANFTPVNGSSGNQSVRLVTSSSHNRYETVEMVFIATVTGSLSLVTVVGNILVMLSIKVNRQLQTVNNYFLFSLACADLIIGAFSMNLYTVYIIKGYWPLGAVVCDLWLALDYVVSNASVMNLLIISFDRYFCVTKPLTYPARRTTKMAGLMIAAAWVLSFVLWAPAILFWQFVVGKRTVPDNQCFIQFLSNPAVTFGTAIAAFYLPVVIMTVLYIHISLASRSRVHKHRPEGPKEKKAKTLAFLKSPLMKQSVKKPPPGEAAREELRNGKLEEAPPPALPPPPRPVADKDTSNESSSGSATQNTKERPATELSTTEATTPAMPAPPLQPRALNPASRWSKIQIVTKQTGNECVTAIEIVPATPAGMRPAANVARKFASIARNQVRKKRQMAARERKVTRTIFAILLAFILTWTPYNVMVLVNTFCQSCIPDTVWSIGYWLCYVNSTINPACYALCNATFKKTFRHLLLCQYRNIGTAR
Method in brief: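 Read-out: FLIPR fluorescence (ex 488, em 540 nm) over 60 s. Recombinant CHO lines are dye-loaded (Fluo-3 AM or Calcium 3) with 1 mM probenecid. For antagonist mode, compound is pre-incubated 15 min, or co-applied, then carbachol is added at 3× EC80 per subtype.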

M3 muscarinic receptor = target: T4, M3 muscarinic receptor (Homo sapiens, UniProt P20309); assay: Functional mobilization of intracellular calcium (FLIPR) in CHO cells expressing M3; details: for M3 Activity: CHO cells expressing M3, FLIPR calcium assay; for Emax: CHO, 100% efficacy = maximum response obtained with the Carbachol control
T4 construct: expressed in transfected cells; host or cells: CHO (M3-CHO)
T4 sequence (P20309 whole entry): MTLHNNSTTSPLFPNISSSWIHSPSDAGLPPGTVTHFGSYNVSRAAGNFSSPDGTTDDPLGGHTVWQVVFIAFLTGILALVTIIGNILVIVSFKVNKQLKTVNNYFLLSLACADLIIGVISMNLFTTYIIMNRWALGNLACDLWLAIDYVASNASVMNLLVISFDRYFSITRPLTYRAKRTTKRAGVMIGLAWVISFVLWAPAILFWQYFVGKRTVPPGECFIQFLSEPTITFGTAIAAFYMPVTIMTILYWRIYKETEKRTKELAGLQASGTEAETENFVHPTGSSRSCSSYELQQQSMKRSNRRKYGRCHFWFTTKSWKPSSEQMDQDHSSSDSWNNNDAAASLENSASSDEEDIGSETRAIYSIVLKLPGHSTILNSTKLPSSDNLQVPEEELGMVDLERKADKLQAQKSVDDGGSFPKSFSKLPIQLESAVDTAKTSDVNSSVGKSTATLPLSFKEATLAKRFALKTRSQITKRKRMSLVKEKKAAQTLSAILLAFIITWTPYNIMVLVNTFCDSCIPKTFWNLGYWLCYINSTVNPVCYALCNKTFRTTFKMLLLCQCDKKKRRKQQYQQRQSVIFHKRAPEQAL
Method in brief: as §1

Row | SMILES | M1 Activity (M1 muscarinic receptor) | Emax (M1 muscarinic receptor) [%] | M2 Activity (M2 muscarinic receptor) | Emax (M2 muscarinic receptor) [%] | M4 Activity (M4 muscarinic receptor) | Emax (M4 muscarinic receptor) [%] | M3 Activity (M3 muscarinic receptor) | Emax (M3 muscarinic receptor) [%]
1 | CC(C)(C)CCN1CCC2(CC[C@@H](NC(=O)C3CCCO3)c3ccccc32)CC1 (some centres unmarked) [compound 220] | + (activity was measured to be greater than 5.0 μM) | < 25 | + (activity was measured to be greater than 5.0 μM) | < 25 | +++ (activity was measured to be less than 2.0 μM) | 25 to 100 | + (activity was measured to be greater than 5.0 μM) | < 25
2 | CCN(C(=O)CCOC)[C@H]1CCC2(CCN(CCC(C)(C)C)CC2)c2ccccc21 [compound 221] | ++ (activity was measured to be from 2.0 μM to 5.0 μM) | 25 to 100 | + (activity was measured to be greater than 5.0 μM) | < 25 | +++ (activity was measured to be less than 2.0 μM) | 25 to 100 | + (activity was measured to be greater than 5.0 μM) | < 25
3 | CC(C)(C)CCN1CCC2(CC[C@H](N3CCCCC3=O)c3ccc(F)cc32)CC1 [compound 222] | +++ (activity was measured to be less than 2.0 μM) | 25 to 100 | + (activity was measured to be greater than 5.0 μM) | < 25 | +++ (activity was measured to be less than 2.0 μM) | 25 to 100 | + (activity was measured to be greater than 5.0 μM) | < 25
4 | CCN(C(=O)Cc1ccncc1)[C@H]1CCC2(CCN(CCC(C)(C)C)CC2)c2ccccc21 [compound 223] | + (activity was measured to be greater than 5.0 μM) | 25 to 100 | + (activity was measured to be greater than 5.0 μM) | < 25 | +++ (activity was measured to be less than 2.0 μM) | 25 to 100 | + (activity was measured to be greater than 5.0 μM) | < 25
5 | CC(C)(C)CCN1CCC2(CC[C@H](NC(=O)C(F)(F)F)c3ccccc32)CC1 [compound 224] | +++ (activity was measured to be less than 2.0 μM) | 25 to 100 | + (activity was measured to be greater than 5.0 μM) | < 25 | +++ (activity was measured to be less than 2.0 μM) | 25 to 100 | + (activity was measured to be greater than 5.0 μM) | < 25
6 | CC(C)(C)CCN1CCC2(CC1)C[C@H](NC(=O)C1CCCC1)c1ccccc12 [compound 225] | + (activity was measured to be greater than 5.0 μM) | < 25 | + (activity was measured to be greater than 5.0 μM) | < 25 | + (activity was measured to be greater than 5.0 μM) | < 25 | + (activity was measured to be greater than 5.0 μM) | < 25
7 | CCN(CC)C(=O)CN1CCC2(CC1)C[C@H](NC(C)=O)c1ccccc12 [compound 226] | + (activity was measured to be greater than 5.0 μM) | < 25 | + (activity was measured to be greater than 5.0 μM) | < 25 | + (activity was measured to be greater than 5.0 μM) | < 25 | + (activity was measured to be greater than 5.0 μM) | < 25
8 | CCCC(=O)N[C@H]1CC2(CCN(CCC(C)C)CC2)c2ccccc21 [compound 227] | + (activity was measured to be greater than 5.0 μM) | < 25 | + (activity was measured to be greater than 5.0 μM) | < 25 | + (activity was measured to be greater than 5.0 μM) | < 25 | + (activity was measured to be greater than 5.0 μM) | < 25
9 | CC(=O)N[C@H]1CC2(CCN(CC(N)=O)CC2)c2ccccc21 [compound 229] | + (activity was measured to be greater than 5.0 μM) | < 25 | + (activity was measured to be greater than 5.0 μM) | < 25 | + (activity was measured to be greater than 5.0 μM) | < 25 | + (activity was measured to be greater than 5.0 μM) | < 25
10 | CCC(=O)N[C@H]1CC2(CCN(CCC(C)(C)C)CC2)c2ccccc21 [compound 230] | – | 25 to 100 | – | < 25 | – | 25 to 100 | – | < 25
11 | CCC(=O)N[C@H]1CC2(CCN(CCC(C)C)CC2)c2ccccc21 [compound 231] | + (activity was measured to be greater than 5.0 μM) | < 25 | + (activity was measured to be greater than 5.0 μM) | < 25 | +++ (activity was measured to be less than 2.0 μM) | < 25 | + (activity was measured to be greater than 5.0 μM) | < 25
12 | CN1CCC2(CCCc3ccccc32)CC1 [compound 232] | + (activity was measured to be greater than 5.0 μM) | < 25 | + (activity was measured to be greater than 5.0 μM) | < 25 | + (activity was measured to be greater than 5.0 μM) | < 25 | + (activity was measured to be greater than 5.0 μM) | < 25
13 | COC(=O)CN1CCC2(CC1)C[C@H](NC(C)=O)c1ccccc12 [compound 233] | + (activity was measured to be greater than 5.0 μM) | 25 to 100 | + (activity was measured to be greater than 5.0 μM) | < 25 | + (activity was measured to be greater than 5.0 μM) | < 25 | + (activity was measured to be greater than 5.0 μM) | < 25
14 | CCOc1ccc(CN2CCC3(CC[C@H](NC(C)=O)c4ccccc43)CC2)cc1 [compound 234] | ++ (activity was measured to be from 2.0 μM to 5.0 μM) | 25 to 100 | + (activity was measured to be greater than 5.0 μM) | < 25 | ++ (activity was measured to be from 2.0 μM to 5.0 μM) | 25 to 100 | + (activity was measured to be greater than 5.0 μM) | < 25
15 | CC(=O)N[C@H]1CC2(CCN(CC(=O)NCC(C)C)CC2)c2ccccc21 [compound 235] | + (activity was measured to be greater than 5.0 μM) | < 25 | + (activity was measured to be greater than 5.0 μM) | < 25 | + (activity was measured to be greater than 5.0 μM) | < 25 | + (activity was measured to be greater than 5.0 μM) | < 25
